# Assay results: patent US9573954B2, “Pyrazolopyrimidine compounds” (University Health Network, priority 2012, dated 2017)
# Read-outs that look alike come from different tables or passages of the source.
# How the values were obtained:
# [1] = test system: colon cancer cells (HCT116); assay: Cancer cell line growth inhibition, Sulforhodamine B assay, HCT116; format: cell-based; conditions: Homo sapiens, HCT-116, HCT116 colon cancer cell line; read-out: Cancer Cell Line GI50 Range HCT116
# Method in brief: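 HCT116 cells, 1000–4000 per well, seeded 24 h ahead, then treated 5 days with compound at 10 nM to 50 μM final in DMEM with 10% FBS. Growth measured by sulforhodamine B staining after TCA fixation, A570; GI50 from inhibition relative to DMSO-only cells.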
# [2] = test system: breast cancer cells (MDA-MB-468); assay: Cancer cell line growth inhibition, Sulforhodamine B assay, MDA-MB-468; format: cell-based; conditions: Homo sapiens, MDA-MB-468, MDA-MB-468 breast cancer cell line; read-out: Cancer Cell Line GI50 Range MDA-MB-468
# Method in brief: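 MDA-MB-468 cells exposed 5 days to compound at final 10 nM to 50 μM in DMEM with 10% FBS. Growth measured by sulforhodamine B protein staining after TCA fixation, absorbance 570 nm; inhibition relative to DMSO-only cells, GI50 determined for cytotoxic compounds.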
# [3] = test system: Colon 12 tumor initiating cells; assay: Tumor-initiating cell growth inhibition, Alamar Blue assay, colon TICs; format: cell-based; conditions: 216 h; Colon 12 TICs, 9 days; read-out: Tumor Initiating Cell GI50 Range Colon 12
# From the text: (§1) Non-tissue or tissue cultured treated T-75 flask and 96-well plates were purchased from VWR. Vitamin B-27 supplement, MEM NEAA (minimum essential medium non essential amino acids), sodium pyruvate, L-glutamine, N2 supplement, penicillin-streptomycin and fungizone/amphotericin B were obtained from Invitrogen. Lipid mixture, heparin and EGF were purchased from Sigma; bFGF from BD Biosciences. Tumor Initiating Cells (TICs) from colon were routinely maintained using non-tissue cultured treated T-75 flasks in DMEM:F12 medium containing 0.2XB-27 supplement, 4 ug/ml heparin, 1×MEM NEAA, 1×sodium pyruvate, 1 mM glutamine, 10 pg/ul bFGF, 20 pg/ul EGF, 1× N2 supplement, lipid mixture, penicillin-streptomycin and fungizone/amphotericin B. Ovarian TICs were routinely maintained using tissue cultured treated T-75 flasks in DMEM:F12 medium containing IXB-27 supplement, 4 ug/ml heparin, 20 pg/ul bFGF, 20 pg/ul EGF and penicillin-streptomycin.
# (§2) Compounds described herein were dissolved in DMSO and further diluted in cell culture medium for GI50 determination. Colon TICs were trypsinized and seeded into non-tissue cultured treated 96-well plates with 4,000 cells/well. After 24 h, compound was added into the cell culture at different concentrations, and the final concentration of DMSO was adjusted to 0.1%. Cells were then cultured at 37° C. for 9 days. Ovarian TICs were trypsinized and seeded into tissue cultured treated 96-well plates with 1,000 cells/well. After 24 h, compound was added into the cell culture at different concentrations, and the final concentration of DMSO was adjusted to 0.1%. Cells were then cultured at 37° C. for 6 days. Cell viability was assessed by Alamar Blue assay: 10 ul of Alamar Blue was added into each well. After 4 hours incubation at 37° C., fluorescence was recorded at excitation 544 and emission 590. GI50 (Growth inhibition) was calculated using GraphPad Prism 4.0 software.
# (§3) In Table 1 below, GI50 value ranges for compound examples against TICs (Colon 12 and Ovarian 2393A) are given.
# [4] = test system: ovarian cancer cells (OVCAR-3); assay: Cancer cell line growth inhibition, Sulforhodamine B assay, OVCAR-3; format: cell-based; conditions: Homo sapiens, OVCAR-3, OVCAR-3 ovarian cancer cell line; read-out: Cancer Cell Line GI50 Range OVCAR-3
# Method in brief: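 OVCAR-3 cells were seeded 24 h before compound addition, then exposed for 5 days to final concentrations of 10 nM to 50 μM in DMEM with 10% FBS. Growth was measured by TCA fixation and sulforhodamine B staining with absorbance at 570 nm. Inhibition was relative to DMSO-only cells, and GI50 came from curve fitting.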
# [5] = test system: Ovarian 2393A tumor initiating cells; assay: Tumor-initiating cell growth inhibition, Alamar Blue assay, ovarian TICs; format: cell-based; conditions: 144 h; Ovarian 2393A TICs, 6 days; read-out: Tumor Initiating Cell GI50 Range Ovarian 2393A
# From the text: as §1, §2, §3
# [6] = target: T1, human TTK (Homo sapiens, UniProt P33981); assay: TTK inhibition assay (indirect ELISA); format: biochemical
# T1 construct: Active TTK was purchased from Invitrogen as an amino terminal GST fusion of full length human TTK; purchased Invitrogen
# T1 sequence (P33981 1-857): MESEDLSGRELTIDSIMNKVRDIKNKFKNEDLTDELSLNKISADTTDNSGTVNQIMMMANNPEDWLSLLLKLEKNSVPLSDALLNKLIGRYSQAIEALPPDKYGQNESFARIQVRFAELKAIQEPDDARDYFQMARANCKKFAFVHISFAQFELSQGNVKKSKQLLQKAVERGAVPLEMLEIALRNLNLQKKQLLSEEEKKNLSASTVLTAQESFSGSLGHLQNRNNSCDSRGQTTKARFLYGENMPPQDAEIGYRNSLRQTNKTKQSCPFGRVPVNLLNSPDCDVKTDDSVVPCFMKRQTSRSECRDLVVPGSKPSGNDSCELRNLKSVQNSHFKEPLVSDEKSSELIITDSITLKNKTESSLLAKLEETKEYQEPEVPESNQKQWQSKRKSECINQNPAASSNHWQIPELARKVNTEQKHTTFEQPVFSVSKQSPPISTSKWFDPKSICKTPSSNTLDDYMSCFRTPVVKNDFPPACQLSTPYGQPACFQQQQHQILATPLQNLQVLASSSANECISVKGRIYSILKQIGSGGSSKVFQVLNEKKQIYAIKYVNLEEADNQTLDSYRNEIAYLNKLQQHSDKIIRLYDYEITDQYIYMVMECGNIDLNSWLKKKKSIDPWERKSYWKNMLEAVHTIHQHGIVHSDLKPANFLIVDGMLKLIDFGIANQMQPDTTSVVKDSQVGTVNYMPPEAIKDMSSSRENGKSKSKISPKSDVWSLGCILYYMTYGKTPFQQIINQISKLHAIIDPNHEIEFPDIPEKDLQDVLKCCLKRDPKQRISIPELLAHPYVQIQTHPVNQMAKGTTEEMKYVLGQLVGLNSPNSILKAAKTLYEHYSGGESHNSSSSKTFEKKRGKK
# Method in brief: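 Activity detected by indirect ELISA after compounds sat with full-length GST-TTK for 5 min prior to starting the reaction with ATP. IC50 came from a four-parameter logistic curve of % inhibition, calculated against background and uninhibited control wells.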
# [7] = 16 μM ATP (Sigma cat# A7699), read-out: TTK IC50 Range (denoted with an asterisk)
# [8] = 100 μM ATP, read-out: TTK IC50 Range
compound,measurement,setting,value
O=C(NC1CC1)c1ccc(-c2cnn3c(NCC4CCOCC4)nc(Oc4ccccc4)nc23)cc1F [Example C7],GI50,[1],> 500 nM
same,GI50,[2],> 500 nM
same,GI50,[3],100 to 500 nM
same,GI50,[4],> 500 nM
same,GI50,[5],100 to 500 nM
same,IC50,[6]; [7],< 100 nM
Cc1cc(-c2cnn3c(NCC4CCOCC4)nc(Nc4ccccc4)nc23)ccc1C(=O)NC1CC1 [Example C10],GI50,[1],> 500 nM
same,GI50,[2],> 500 nM
same,GI50,[3],> 500 nM
same,GI50,[4],> 500 nM
same,GI50,[5],> 500 nM
same,IC50,[6]; [7],< 100 nM
Cc1cc(-c2cnn3c(NCC4CCOCC4)nc(Oc4ccccc4F)nc23)ccc1C(=O)NC1CC1 [Example C20],GI50,[1],≤ 100 nM
same,GI50,[2],100 to 500 nM
same,GI50,[3],≤ 100 nM
same,GI50,[4],100 to 500 nM
same,GI50,[5],100 to 500 nM
same,IC50,[6]; [7],< 100 nM
Cc1cc(-c2cnn3c(NCC4CCOCC4)nc(Oc4cccc(F)c4)nc23)ccc1C(=O)NC1CC1 [Example C21],GI50,[1],≤ 100 nM
same,GI50,[2],≤ 100 nM
same,GI50,[3],≤ 100 nM
same,GI50,[4],≤ 100 nM
same,GI50,[5],≤ 100 nM
same,IC50,[6]; [7],< 100 nM
Cc1cc(-c2cnn3c(NC[C@H]4CC[C@@H](O)CC4)nc(Oc4cccc(F)c4)nc23)ccc1C(=O)NC1CC1 [Example C24],GI50,[1],≤ 100 nM
same,GI50,[2],≤ 100 nM
same,GI50,[3],≤ 100 nM
same,GI50,[4],≤ 100 nM
same,GI50,[5],≤ 100 nM
same,IC50,[6]; [7],< 100 nM
COc1ccc(Oc2nc(NCC3CCOCC3)n3ncc(-c4ccc(C(=O)NC5CC5)c(C)c4)c3n2)c(F)c1 [Example C25],GI50,[1],≤ 100 nM
same,GI50,[2],100 to 500 nM
same,GI50,[3],≤ 100 nM
same,GI50,[4],100 to 500 nM
same,GI50,[5],100 to 500 nM
same,IC50,[6]; [7],< 100 nM
Cc1cc(-c2cnn3c(NCCN4CCOCC4)nc(Oc4cccc(F)c4F)nc23)ccc1C(=O)NC1CC1 [Example C26],GI50,[1],≤ 100 nM
same,GI50,[2],100 to 500 nM
same,GI50,[3],≤ 100 nM
same,GI50,[4],100 to 500 nM
same,GI50,[5],≤ 100 nM
same,IC50,[6]; [7],< 100 nM
Cc1cc(-c2cnn3c(NCC4(F)CCN(C)CC4)cc(Oc4cccc(F)c4)nc23)ccc1C(=O)NC1CC1 [Example C28],GI50,[1],≤ 100 nM
same,GI50,[2],≤ 100 nM
same,GI50,[3],≤ 100 nM
same,GI50,[4],≤ 100 nM
same,GI50,[5],≤ 100 nM
same,IC50,[6]; [8],< 100 nM
"Cc1cc(-c2cnn3c(NCCN4CCOCC4)cc(Oc4cccc(F)c4)nc23)ccc1C(=O)NC1CC1 [Example C31, N-cyclopropyl-4-(5-(3-fluorophenoxy)-7-((2-morpholinoethyl)amino)pyrazolo[1,5-a]pyrimidin-3-yl)-2-methylbenzamide]",GI50,[1],≤ 100 nM
same,GI50,[2],≤ 100 nM
same,GI50,[3],≤ 100 nM
same,GI50,[4],≤ 100 nM
same,GI50,[5],≤ 100 nM
same,IC50,[6]; [8],< 100 nM
"Cc1cc(-c2cnn3c(NCCN4CCOCC4)cc(Oc4cccc(F)c4F)nc23)ccc1C(=O)NC1CC1 [Example C32, N-cyclopropyl-4-(5-(2,3-difluorophenoxy)-7-((2-morpholinoethyl)amino)pyrazolo[1,5-a]pyrimidin-3-yl)-2-methylbenzamide]",GI50,[1],≤ 100 nM
same,GI50,[2],≤ 100 nM
same,GI50,[3],≤ 100 nM
same,GI50,[4],≤ 100 nM
same,GI50,[5],≤ 100 nM
same,IC50,[6]; [8],< 100 nM
"Cc1cc(-c2cnn3c(NCC4COC4)cc(N[C@H]4CCCC[C@H]4O)nc23)ccc1C(=O)NC1CC1 [Example C37, N-cyclopropyl-4-(5-(((1S,2R)-2-hydroxycyclohexyl)amino)-7-((oxetan-3-ylmethyl)amino)pyrazolo[1,5-a]pyrimidin-3-yl)-2-methylbenzamide]",GI50,[1],≤ 100 nM
same,GI50,[2],≤ 100 nM
same,GI50,[3],≤ 100 nM
same,GI50,[4],≤ 100 nM
same,GI50,[5],≤ 100 nM
same,IC50,[6]; [8],< 100 nM
"Cc1cc(-c2cnn3c(NCC4CCOCC4)cc(N[C@H](CO)C(C)C)nc23)ccc1C(=O)NC1CC1 [Example C38, (S)-N-cyclopropyl-4-(5-((1-hydroxy-3-methylbutan-2-yl)amino)-7-(((tetrahydro-2H-pyran-4-yl)methyl)amino)pyrazolo[1,5-a]pyrimidin-3-yl)-2-methylbenzamide]",GI50,[1],≤ 100 nM
same,GI50,[2],≤ 100 nM
same,GI50,[3],≤ 100 nM
same,GI50,[4],≤ 100 nM
same,GI50,[5],≤ 100 nM
same,IC50,[6]; [8],< 100 nM
Cc1cc(-c2cnn3c(NCC4(F)CCN(C)CC4)cc(OC4CCCC4)nc23)ccc1C(=O)NC1CC1 [Example C174],GI50,[1],100 to 500 nM
same,GI50,[2],> 500 nM
same,GI50,[4],> 500 nM
same,IC50,[6]; [8],< 100 nM
Cc1cc(-c2cnn3c(NCCN4CCN(C)CC4)cc(Oc4cccc(F)c4)nc23)ccc1C(=O)NC1CC1 [Example C178],GI50,[1],≤ 100 nM
same,GI50,[2],≤ 100 nM
same,GI50,[4],100 to 500 nM
same,IC50,[6]; [8],< 100 nM
Cc1cc(-c2cnn3c(NC[C@H]4CC[C@@H](O)CC4)cc(NC4CCOCC4)nc23)ccc1C(=O)NC1CC1 [Example C179],GI50,[1],≤ 100 nM
same,GI50,[2],≤ 100 nM
same,GI50,[4],≤ 100 nM
same,IC50,[6]; [8],< 100 nM
Cc1cc(-c2cnn3c(NCCN4CCCCC4)cc(Oc4cccc(F)c4)nc23)ccc1C(=O)NC1CC1 [Example C180],GI50,[1],≤ 100 nM
same,GI50,[2],100 to 500 nM
same,GI50,[4],100 to 500 nM
same,IC50,[6]; [8],< 100 nM
Cc1cc(-c2cnn3c(NCCN4CCOCC4)cc(Oc4ccc(F)cc4)nc23)ccc1C(=O)NC1CC1 [Example C181],GI50,[1],≤ 100 nM
same,GI50,[2],100 to 500 nM
same,GI50,[4],100 to 500 nM
same,IC50,[6]; [8],< 100 nM
Cc1cc(-c2cnn3c(NCCN4CCC(O)CC4)cc(N[C@H]4CCCC[C@H]4O)nc23)ccc1C(=O)NC1CC1 [Example C183],GI50,[1],> 500 nM
same,GI50,[2],100 to 500 nM
same,GI50,[4],> 500 nM
same,IC50,[6]; [8],< 100 nM
Cc1cc(-c2cnn3c(NC[C@H]4C[C@](C)(O)C4)cc(NC4CCCC4)nc23)ccc1C(=O)NC1CC1 [Example C186],GI50,[1],≤ 100 nM
same,GI50,[2],100 to 500 nM
same,GI50,[4],100 to 500 nM
same,IC50,[6]; [8],< 100 nM
